What was measured:
[1] = molecular target: MERS-CoV spike protein (S1 subunit, His tag) (Middle East respiratory syndrome-related coronavirus, UniProt K9N5Q8); experiment: biochemical; type: binding
[2] = molecular target: SARS-CoV spike protein (S1 subunit, His tag) (Severe acute respiratory syndrome coronavirus, UniProt P59594); experiment: biochemical; type: binding
[3] = molecular target: SARS-CoV-2 S-RBD/ACE2 interaction (Severe acute respiratory syndrome coronavirus 2, UniProt P0DTC2); type: cell-based
[4] = system: mouse aorta smooth muscle cells (MASMCs); experiment: MTT cell toxicity assay, MASMCs; conditions: at high concentrations (100 μM)
[5] = molecular target: SARS-CoV-2 spike protein (S1 subunit, His tag) (Severe acute respiratory syndrome coronavirus 2, UniProt P0DTC2); experiment: biochemical; type: binding

Chain of MERS-CoV spike protein (S1 subunit, His tag) (K9N5Q8 18-751 limits assumed): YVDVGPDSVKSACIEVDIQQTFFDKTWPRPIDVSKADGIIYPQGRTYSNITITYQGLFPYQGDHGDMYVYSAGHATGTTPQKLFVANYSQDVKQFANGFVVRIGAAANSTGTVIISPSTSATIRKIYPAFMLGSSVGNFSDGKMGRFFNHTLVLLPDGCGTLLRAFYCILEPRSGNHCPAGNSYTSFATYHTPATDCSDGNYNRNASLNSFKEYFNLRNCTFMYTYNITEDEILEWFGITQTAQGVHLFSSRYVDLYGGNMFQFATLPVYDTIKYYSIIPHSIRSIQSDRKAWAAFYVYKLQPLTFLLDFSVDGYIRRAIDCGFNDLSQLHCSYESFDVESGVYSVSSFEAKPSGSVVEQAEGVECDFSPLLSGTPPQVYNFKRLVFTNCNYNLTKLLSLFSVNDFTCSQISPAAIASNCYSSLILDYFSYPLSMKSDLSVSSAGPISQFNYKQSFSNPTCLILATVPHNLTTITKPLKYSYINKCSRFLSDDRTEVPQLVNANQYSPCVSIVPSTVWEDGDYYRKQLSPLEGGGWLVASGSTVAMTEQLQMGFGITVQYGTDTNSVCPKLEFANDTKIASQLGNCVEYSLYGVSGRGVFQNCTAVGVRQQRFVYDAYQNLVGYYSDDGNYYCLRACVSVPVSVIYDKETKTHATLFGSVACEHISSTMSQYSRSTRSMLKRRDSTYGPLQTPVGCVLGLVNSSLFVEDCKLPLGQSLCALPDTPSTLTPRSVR

Row | Compound | Kd [1] | Kd [2] | Disruption of the SARS-CoV-2 S-RBD/ACE2 interaction in cells [3] | Cell toxicity to MASMCs [4] | Kd [5]
1 | CC1(C)[C@@H](O[C@H]2O[C@H](C(=O)O)[C@@H](O)[C@H](O)[C@H]2O[C@@H]2O[C@H](C(=O)O)[C@@H](O)[C@H](O)[C@H]2O)CC[C@]2(C)[C@H]3C(=O)C=C4[C@@H]5C[C@@](C)(C(=O)O)CC[C@]5(C)CC[C@@]4(C)[C@]3(C)CC[C@@H]12 [ZZY-44, Glycyrrhizic acid] | 0.47 µM | 66.8 µM | could disrupt | no cell toxicity | –
2 | CC(C)=CCC[C@](C)(O[C@@H]1O[C@H](CO[C@@H]2O[C@H](CO)[C@@H](O)[C@H](O)[C@H]2O)[C@@H](O)[C@H](O)[C@H]1O)[C@H]1CC[C@]2(C)[C@@H]1[C@H](O)C[C@@H]1[C@@]3(C)CC[C@H](O[C@@H]4O[C@H](CO)[C@@H](O)[C@H](O)[C@H]4O[C@@H]4O[C@H](CO)[C@@H](O)[C@H](O)[C@H]4O)C(C)(C)[C@@H]3CC[C@]12C [ZZY-9, Ginsenoside Rb1] | 3.45 µM | 29.7 µM | – | – | 0.47 µM
3 | COc1ccc2cc3[n+](cc2c1OC)CCc1cc2c(cc1-3)OCO2 [ZZY-54, Berberine Chloride] | 7.39 µM | 23.9 µM | – | – | 1.24 µM
4 | CC(C)=CCC[C@](C)(O[C@@H]1O[C@H](CO[C@@H]2OC[C@@H](O)[C@H](O)[C@H]2O)[C@@H](O)[C@H](O)[C@H]1O)[C@H]1CC[C@]2(C)[C@@H]1[C@H](O)C[C@@H]1[C@@]3(C)CC[C@H](O[C@@H]4O[C@H](CO)[C@@H](O)[C@H](O)[C@H]4O[C@@H]4O[C@H](CO)[C@@H](O)[C@H](O)[C@H]4O)C(C)(C)[C@@H]3CC[C@]12C [ZZY-13, Ginsenoside Rb3] | 0.25 µM | 2 µM | could disrupt | no cell toxicity | 1 µM

— paper PMC7531286 (Phytomedicine, 2020)
